From patent US20200061062A1, “INHIBITORS OF HUMAN PHOSPHATIDYLINOSITOL 3-KINASE DELTA” (ICOS Corporation, priority 2000, published 2020)

Experiments:
human neutrophils = test: Elastase exocytosis from neutrophils (fMLP-induced); format: cell-based; conditions: neutrophil (PMN) elastase release
Experimental: Aliquots (8 mL) of heparinized blood from healthy volunteers were layered on 3 mL cushions of 7.3% FICOLL® (Sigma, St. Louis, Mo.) and 15.4% HYPAQUE® (Sigma) and centrifuged at 900 rpm for 30 min at room temperature in a table top centrifuge (Beckman). The neutrophil-rich band just above the FICOLL®-HYPAQUE® cushion was collected and washed with Hanks' balanced salt solution (HBSS) containing 0.1% gelatin. Residual erythrocytes were removed by hypotonic lysis with 0.2% NaCl. The neutrophil preparation was washed twice with HBSS containing 0.1% gelatin and used immediately.
In addition to superoxide generation, activated neutrophils also respond by releasing several proteases that are responsible for the destruction of tissues and cartilage during inflammation. As an indication of protease release, the effect of D-000 on elastase exocytosis was measured. Elastase exocytosis was quantitated by modification of the procedure described by Ossanna et al. (J Clin Invest, 77:1939-1951 (1986)), as follows. Purified human neutrophils (0.2×10^6) (treated with either DMSO or a serial dilution of D-000 in DMSO) were stimulated with fMLP in PBS containing 0.01 mg/mL cytochalasin B, 1.0 μM sodium azide (NaN3), 5 μg/mL L-methionine and 1 μM fMLP for 90 min at 37° C. in a 96-well plate. At the end of the incubation period, the plate was centrifuged for 5 min at 1000 rpm, and 90 μL of the supernatant was transferred to 10 μL of 10 mM solution of an elastase substrate peptide, MeO-suc-Ala-Ala-Pro-Val-pNA, wherein MeO-suc=methoxy-succinyl; pNA=p-nitroanilide (Calbiochem, San Diego, Calif.). Absorbance at 410 nm was monitored for 2 hr in a 96-well plate reader. To measure the relative amounts of elastase excytosed, all absorbance values were normalized to the values without any inhibitor. […] Inhibition was half-maximal at a concentration of about 2-3 μM D-000.
(§1) Using the methods described in Examples 3-5, above, compounds of the invention were tested for inhibitory activity and potency in assays of stimulated B and T cell proliferation, neutrophil (PMN) migration, and neutrophil (PMN) elastase release. In Table 4, the values shown are effective concentrations of the compound (EC50; μM). Where no value is given, no assay was performed.

PI3Kδ [1] = biological target: T1, PI3Kδ (Homo sapiens, UniProt O00329, S253N); test: Biochemical assay of PI3K potency and selectivity using 20 μM ATP, Delta; design: His tag (pFastbac HTb vector) (N); FLAG; made in house; host or cells: Sf21 insect cells (baculovirus); conditions: 20 μM ATP; read-out: Delta IC50
Excerpt: (§2) Recombinant PI3K heterodimeric complexes consisting of a p110 catalytic subunit and a p85 regulatory subunit were overexpressed using the BAC-TO-BAC® HT baculovirus expression system (GIBCO/BRL), and then purified for use in biochemical assays. The four Class I PI 3-kinases were cloned into baculovirus vectors as follows: […]

PI3Kβ [2] = biological target: T2, PI3Kβ (Homo sapiens, UniProt P42338); test: Biochemical assay of PI3K potency and selectivity using 20 μM ATP, Beta; conditions: 20 μM ATP; for Beta/Delta Ratio: ratio of IC50 values, > = hypothetical ratio with 100 μM substituted for the missing IC50; for remaining activity at 100 µM: read-out: Beta: percent activity remaining at 100 μM, 100 μM compound did not inhibit by at least 50%; for IC50: read-out: Beta IC50
T2 construct: His tag (pFastbac HTa vector) (N); FLAG (N); made in house; host or cells: Sf21 insect cells (baculovirus)
Experimental: Recombinant PI3K heterodimeric complexes consisting of a p110 catalytic subunit and a p85 regulatory subunit were overexpressed using the BAC-TO-BAC® HT baculovirus expression system (GIBCO/BRL), and then purified for use in biochemical assays. The four Class I PI 3-kinases were cloned into baculovirus vectors as follows:
The 3× substrate for the HTS contained 0.6 mM Na2ATP, 0.10 mCi/mL γ-[^32P]ATP (NEN, Pittsburgh, Pa.), 6 μM PIP2/PS liposomes (Avanti Polar Lipids, Inc., […].), in 20 mM HEPES, pH 7.4.

PI3Kα [3] = biological target: T3, PI3Kα (Homo sapiens, UniProt P42336); test: Biochemical assay of PI3K potency and selectivity using 20 μM ATP, Alpha; conditions: for Alpha/Delta Ratio / IC50: 20 μM ATP; for Alpha/Delta Ratio: ratio of IC50 values, > = hypothetical ratio with 100 μM substituted for the missing IC50; for IC50: read-out: Alpha IC50; for remaining activity at 100 µM: read-out: percent activity remaining at 100 μM, 20 μM ATP, 100 μM compound did not inhibit by at least 50%
T3 construct: His tag (pFastbac HTb vector) (N); FLAG; made in house; host or cells: Sf21 insect cells (baculovirus)
Excerpt: as §2

PI3Kα [4] = biological target: T3, PI3Kα; test: Biochemical assay using 200 μM ATP, Alpha
Experimental: (§3) PI3Kδ catalyzes a phosphotransfer from γ-[^32P]ATP to PIP2/PS liposomes at the D3′ position of the PIP2 lipid inositol ring. This reaction is MgCl2 dependent and is quenched in high molarity potassium phosphate buffer pH 8.0 containing 30 mM EDTA. […] The reaction products (and all unlabelled products) are transferred to a 96-well, prewetted PVDF filter plate, filtered, and washed in high molarity potassium phosphate. Scintillant is added to the dried wells and the incorporated radioactivity is quantitated.
(§4) This dilution established a final concentration of 200 μM ATP in the reaction volume. The reaction was stopped with 150 μL quench buffer (1.0 M potassium phosphate pH 8.0, 30 mM EDTA). A portion of the quenched solution (180 μL) was then transferred to a PVDF filter plate (Millipore # MAIP NOB prewetted with sequential 200 μL washes of 100% methanol, water, and finally 1.0 M potassium phosphate pH 8.0 wash buffer).
(§5) The PVDF filter plate was aspirated under moderate vacuum (2-5 mm Hg), washed with 5×200 μL of wash buffer, and then dried by aspiration. The filter was subsequently blotted, allowed to air dry completely, and inserted into a Wallac counting cassette with 50 μL of Ecoscint scintillation cocktail added per well.
(§6) Subsequent selectivity assays were done similarly using the same 3× substrate stocks except they contained 0.05 mCi/mL γ[^32P]ATP and 3 mM PIP2. Subsequent selectivity assays also used the same 3× enzyme stocks, except they now contained 3 nM of any given PI3K isoform.
(§7) For all selectivity assays, the test compounds were weighed out and dissolved into 10-50 mM stocks in 100% DMSO (depending on their respective solubilities) and stored at −20° C. […] From these dilutions, 20 μL was added into the assay wells alongside water blanks used for the enzyme (positive) control and the no enzyme (background) control.
(§8) This selectivity protocol is identical to that described above, except the 3× stock ATP concentration was 600 μM.

[5] = system: Murine splenocytes (Balb/c); test: B cell proliferation in response to cell surface IgM stimulation; format: cell-based; conditions: Mus musculus, Splenocyte; stimulated B cell proliferation; read-out: Mouse BCR Stim (EC50)
Experimental: In the above experiment, the B cells were stimulated using PANSORBIN®. The effect of D-000 on B cell proliferation response when they were stimulated through their cell surface IgM using anti-IgM antibody also was measured. Murine splenocytes (Balb/c) were plated into 96-well microtiter plates at 2×10^5 cells per well in 10% FBS/RPMI. Appropriate dilutions of test inhibitor in complete medium were added to the cells and the plates were incubated for 30-60 minutes prior to the addition of stimulus. Following the preincubation with test inhibitor an F(ab′)2 preparation of goat antibody specific for the μ-chain of mouse IgM was added to the wells at a final concentration of 25 μg/mL. The plates were incubated at 37° C. for 3 days and 1 μCi of [^3H]-thymidine was added to each well for the final four hours of culture. The plates were harvested onto fiber filters washed and the incorporation of radiolabel was determined using a beta counter (Matrix 96, Packard Instrument Co., Downers Grove, Ill.) and expressed as counts per minute (CPM).
as §1

PI3Kγ = biological target: T4, PI3Kγ (Homo sapiens, UniProt P48736); test: Biochemical assay using 200 μM ATP, Gamma
T4 construct: His tag (pFastbac HTb vector) (N); FLAG (N); made in house; host or cells: Sf21 insect cells (baculovirus)
Experimental: as §3, §4, §5, §6, §7, §8

PI3Kδ [6] = biological target: T1, PI3Kδ; test: Biochemical assay using 200 μM ATP, Delta;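 further: radiometric filter-binding assay: PI3Kδ transfers ³²P from γ-[³²P]ATP onto PIP2/PS liposomes, counted by scintillation, enzyme-only wells as positive control, no-enzyme wells as background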
Experimental: as §3, §4, §5, §6, §7, §8

PI3Kβ [7] = biological target: T2, PI3Kβ; test: Biochemical assay using 200 μM ATP, Beta
Experimental: as §3, §4, §5, §6, §7, §8

T1 sequence (O00329 whole entry S253N): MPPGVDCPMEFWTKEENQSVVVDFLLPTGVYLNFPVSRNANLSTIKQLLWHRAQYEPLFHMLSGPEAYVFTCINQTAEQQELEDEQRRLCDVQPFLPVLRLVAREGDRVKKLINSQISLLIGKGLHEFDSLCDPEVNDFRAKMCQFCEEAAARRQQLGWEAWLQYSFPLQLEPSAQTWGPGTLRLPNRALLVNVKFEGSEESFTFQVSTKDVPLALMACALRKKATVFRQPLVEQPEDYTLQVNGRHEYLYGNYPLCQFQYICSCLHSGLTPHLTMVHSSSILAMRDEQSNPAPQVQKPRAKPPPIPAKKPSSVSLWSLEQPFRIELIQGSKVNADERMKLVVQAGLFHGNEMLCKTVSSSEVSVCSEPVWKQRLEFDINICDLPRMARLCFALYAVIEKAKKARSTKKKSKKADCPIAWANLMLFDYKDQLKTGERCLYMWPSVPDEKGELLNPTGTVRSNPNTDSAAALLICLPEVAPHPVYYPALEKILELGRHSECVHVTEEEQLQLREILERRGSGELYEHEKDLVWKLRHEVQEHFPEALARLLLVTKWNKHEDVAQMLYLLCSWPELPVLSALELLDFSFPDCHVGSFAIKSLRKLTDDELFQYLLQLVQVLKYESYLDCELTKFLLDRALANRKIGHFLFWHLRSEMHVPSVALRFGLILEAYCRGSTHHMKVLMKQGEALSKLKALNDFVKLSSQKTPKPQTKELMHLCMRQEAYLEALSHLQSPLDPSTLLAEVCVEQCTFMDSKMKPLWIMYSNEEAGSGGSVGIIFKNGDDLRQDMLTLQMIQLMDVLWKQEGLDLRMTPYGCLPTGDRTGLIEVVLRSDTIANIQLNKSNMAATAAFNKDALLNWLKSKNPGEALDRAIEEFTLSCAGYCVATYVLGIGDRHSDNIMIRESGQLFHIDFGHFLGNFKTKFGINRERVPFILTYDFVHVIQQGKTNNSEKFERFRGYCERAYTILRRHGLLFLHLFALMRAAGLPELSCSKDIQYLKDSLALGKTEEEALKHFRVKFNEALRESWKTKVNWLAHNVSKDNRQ
T1 sequence (P27986 whole entry partner): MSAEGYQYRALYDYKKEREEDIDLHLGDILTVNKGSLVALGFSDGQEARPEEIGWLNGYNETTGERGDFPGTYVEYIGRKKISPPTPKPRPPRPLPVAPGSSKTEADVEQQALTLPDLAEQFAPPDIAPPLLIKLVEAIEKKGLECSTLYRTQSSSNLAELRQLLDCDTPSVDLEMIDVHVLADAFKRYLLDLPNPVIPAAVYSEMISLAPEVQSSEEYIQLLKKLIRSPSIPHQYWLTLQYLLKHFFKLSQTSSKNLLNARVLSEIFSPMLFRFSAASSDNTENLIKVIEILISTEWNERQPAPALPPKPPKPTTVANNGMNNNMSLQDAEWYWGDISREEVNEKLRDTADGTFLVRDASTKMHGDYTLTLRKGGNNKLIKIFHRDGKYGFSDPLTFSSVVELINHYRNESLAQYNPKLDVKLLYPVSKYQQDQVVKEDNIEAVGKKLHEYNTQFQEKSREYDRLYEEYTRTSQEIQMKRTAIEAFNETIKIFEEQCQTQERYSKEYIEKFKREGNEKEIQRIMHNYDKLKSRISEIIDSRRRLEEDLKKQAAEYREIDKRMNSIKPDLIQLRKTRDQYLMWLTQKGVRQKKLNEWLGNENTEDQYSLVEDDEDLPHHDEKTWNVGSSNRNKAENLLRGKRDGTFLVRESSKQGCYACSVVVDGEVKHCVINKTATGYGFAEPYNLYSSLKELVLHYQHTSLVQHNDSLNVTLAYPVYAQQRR
T4 sequence (P48736 whole entry): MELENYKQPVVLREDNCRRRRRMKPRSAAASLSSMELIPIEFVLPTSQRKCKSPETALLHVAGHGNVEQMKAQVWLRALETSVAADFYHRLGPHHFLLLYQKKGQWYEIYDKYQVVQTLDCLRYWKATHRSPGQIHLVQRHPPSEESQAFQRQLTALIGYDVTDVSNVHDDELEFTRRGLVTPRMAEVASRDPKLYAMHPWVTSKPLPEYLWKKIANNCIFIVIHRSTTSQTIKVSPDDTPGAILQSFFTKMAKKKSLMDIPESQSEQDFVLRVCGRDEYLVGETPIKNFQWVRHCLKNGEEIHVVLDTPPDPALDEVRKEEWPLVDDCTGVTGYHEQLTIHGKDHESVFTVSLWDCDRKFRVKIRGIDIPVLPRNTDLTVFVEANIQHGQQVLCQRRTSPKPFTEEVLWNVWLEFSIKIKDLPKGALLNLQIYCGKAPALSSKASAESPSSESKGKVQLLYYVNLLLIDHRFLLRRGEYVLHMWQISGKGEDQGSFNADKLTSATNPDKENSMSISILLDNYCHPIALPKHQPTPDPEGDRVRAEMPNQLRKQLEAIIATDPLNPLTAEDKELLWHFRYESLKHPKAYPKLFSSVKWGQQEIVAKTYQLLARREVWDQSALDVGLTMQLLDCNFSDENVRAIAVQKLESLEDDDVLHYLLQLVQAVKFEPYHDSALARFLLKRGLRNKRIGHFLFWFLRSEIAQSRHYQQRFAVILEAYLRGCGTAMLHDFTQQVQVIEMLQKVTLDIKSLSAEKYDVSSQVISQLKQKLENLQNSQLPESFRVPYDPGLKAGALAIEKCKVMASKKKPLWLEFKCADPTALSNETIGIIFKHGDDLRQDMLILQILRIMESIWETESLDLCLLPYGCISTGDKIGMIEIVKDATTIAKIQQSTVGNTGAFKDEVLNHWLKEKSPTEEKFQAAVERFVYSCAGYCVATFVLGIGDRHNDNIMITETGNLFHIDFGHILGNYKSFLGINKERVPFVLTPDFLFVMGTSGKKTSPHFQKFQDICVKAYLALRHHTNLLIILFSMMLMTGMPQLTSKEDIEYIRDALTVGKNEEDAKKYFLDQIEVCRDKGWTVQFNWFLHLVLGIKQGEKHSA
T2 sequence (P42338 whole entry): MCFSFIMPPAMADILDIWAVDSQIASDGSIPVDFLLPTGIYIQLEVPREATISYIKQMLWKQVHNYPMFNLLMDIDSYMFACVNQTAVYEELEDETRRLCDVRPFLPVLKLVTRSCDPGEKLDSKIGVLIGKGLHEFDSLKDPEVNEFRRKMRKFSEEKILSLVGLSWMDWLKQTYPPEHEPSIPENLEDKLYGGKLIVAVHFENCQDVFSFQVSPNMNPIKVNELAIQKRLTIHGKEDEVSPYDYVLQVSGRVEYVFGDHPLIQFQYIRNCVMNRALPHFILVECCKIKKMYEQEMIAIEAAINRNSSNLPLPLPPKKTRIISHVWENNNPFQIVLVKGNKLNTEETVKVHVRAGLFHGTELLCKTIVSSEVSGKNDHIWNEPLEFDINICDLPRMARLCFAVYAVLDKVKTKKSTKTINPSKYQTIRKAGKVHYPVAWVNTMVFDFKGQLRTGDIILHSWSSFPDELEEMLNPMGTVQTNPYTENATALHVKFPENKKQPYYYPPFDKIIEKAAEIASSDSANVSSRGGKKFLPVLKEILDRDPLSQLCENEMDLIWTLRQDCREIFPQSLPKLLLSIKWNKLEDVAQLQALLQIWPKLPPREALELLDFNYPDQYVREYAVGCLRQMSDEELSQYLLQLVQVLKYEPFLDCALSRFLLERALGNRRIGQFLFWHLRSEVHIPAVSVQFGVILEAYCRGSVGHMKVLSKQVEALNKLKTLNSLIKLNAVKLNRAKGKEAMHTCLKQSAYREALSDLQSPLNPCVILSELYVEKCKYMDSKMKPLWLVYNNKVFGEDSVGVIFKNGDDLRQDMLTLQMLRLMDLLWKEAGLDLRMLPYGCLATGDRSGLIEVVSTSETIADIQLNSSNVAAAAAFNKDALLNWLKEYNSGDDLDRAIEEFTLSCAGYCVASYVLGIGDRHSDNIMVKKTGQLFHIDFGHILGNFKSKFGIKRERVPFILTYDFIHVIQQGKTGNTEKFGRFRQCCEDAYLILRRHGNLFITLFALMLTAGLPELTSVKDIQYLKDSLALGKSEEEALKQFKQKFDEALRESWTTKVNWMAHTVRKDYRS
T2 sequence (P27986 whole entry partner): as the sequence (P27986 whole entry partner) above
T3 sequence (P42336 whole entry): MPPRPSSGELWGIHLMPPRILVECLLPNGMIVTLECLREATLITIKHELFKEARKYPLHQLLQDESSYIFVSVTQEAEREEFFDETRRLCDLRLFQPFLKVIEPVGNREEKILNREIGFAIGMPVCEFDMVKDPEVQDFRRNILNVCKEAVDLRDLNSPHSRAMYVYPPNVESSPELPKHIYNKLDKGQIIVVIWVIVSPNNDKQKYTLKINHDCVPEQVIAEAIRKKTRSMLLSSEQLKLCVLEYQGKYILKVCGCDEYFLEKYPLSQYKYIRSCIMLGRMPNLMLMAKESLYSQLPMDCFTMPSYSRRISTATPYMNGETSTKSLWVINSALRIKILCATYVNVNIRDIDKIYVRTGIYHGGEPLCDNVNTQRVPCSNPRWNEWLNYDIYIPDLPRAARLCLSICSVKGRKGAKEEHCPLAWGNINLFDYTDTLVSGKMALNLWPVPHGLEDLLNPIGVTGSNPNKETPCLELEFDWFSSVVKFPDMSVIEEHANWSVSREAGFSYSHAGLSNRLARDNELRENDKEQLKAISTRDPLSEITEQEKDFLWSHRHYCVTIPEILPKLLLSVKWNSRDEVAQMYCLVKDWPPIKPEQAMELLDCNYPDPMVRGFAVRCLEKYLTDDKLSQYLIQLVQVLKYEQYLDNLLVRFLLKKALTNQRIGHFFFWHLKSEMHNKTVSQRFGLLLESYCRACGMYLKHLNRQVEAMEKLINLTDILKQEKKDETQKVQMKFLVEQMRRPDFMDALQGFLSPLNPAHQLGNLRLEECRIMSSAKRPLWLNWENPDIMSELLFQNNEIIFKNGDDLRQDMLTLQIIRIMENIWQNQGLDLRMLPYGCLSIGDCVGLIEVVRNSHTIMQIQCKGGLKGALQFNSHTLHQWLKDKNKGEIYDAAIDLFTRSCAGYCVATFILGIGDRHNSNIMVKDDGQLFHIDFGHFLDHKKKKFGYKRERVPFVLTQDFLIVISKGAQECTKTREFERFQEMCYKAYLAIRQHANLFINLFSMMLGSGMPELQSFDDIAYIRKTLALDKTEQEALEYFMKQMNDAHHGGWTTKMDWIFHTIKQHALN
T3 sequence (P27986 whole entry partner): as the sequence (P27986 whole entry partner) above

IC50 (PI3Kγ) | IC50 (PI3Kβ [7]) | Structure (SMILES) | melting point | EC50 (human neutrophils) | IC50 (PI3Kδ [1]) | Beta/Delta Ratio (PI3Kβ [2]) | remaining activity at 100 µM (PI3Kβ [2]) | Alpha/Delta Ratio (PI3Kα [3]) | IC50 (PI3Kα [3]) | Alpha/Delta Ratio (PI3Kα [4]) | EC50 [5] | Gamma/Delta Ratio (PI3Kγ) | IC50 (PI3Kβ [2]) | IC50 (PI3Kδ [6]) | Beta/Delta Ratio (PI3Kβ [7]) | remaining activity at 100 µM (PI3Kα [3])
– | – | O=c1c2cc(O)ccc2nc(CSc2ncnc3[nH]cnc23)n1-c1ccccc1Cl [Compound D-024, 3-(2-Chlorophenyl)-6-hydroxy-2-(9H-purin-6-ylsulfanylmethyl)-3H-quinazolin-4-one] | 186 to 214 °C (dec.) | 2900 nM | 2600 nM | >38 | 76% | 38 | 100000 nM | – | – | – | – | – | – | –
53000 nM | 18000 nM | Nc1ncnc2c1ncn2Cc1nc2cccc(Cl)c2c(=O)n1-c1ccccc1-c1ccccc1 [Compound D-009, 2-(6-Aminopurin-9-ylmethyl)-3-biphenyl-2-yl-5-chloro-3H-quinazolin-4-one] | 299.9 to 300.1 °C | 10500 nM | 120 nM | 50 | – | 683 | 82000 nM | 200 | 300 ± 200 nM | 76 | 5000 nM | 700 nM | 26 | –
60000 nM | 110000 nM | O=c1c2cc(F)c(F)cc2nc(CSc2ncnc3[nH]cnc23)n1-c1ccccc1Cl [Compound D-027, 3-(2-Chlorophenyl)-6,7-difluoro-2-(9H-purin-6-ylsulfanylmethyl)-3H-quinazolin-4-one] | 207.8 °C | 2000 nM | 600 nM | 97 | – | >169 | – | 37 | > 2000 nM | 15 | 58000 nM | 4000 nM | 26 | 59%
34000 ± 1000 nM | 103000 ± 4000 nM | Cc1cccc2nc(CSc3ncnc4[nH]cnc34)n(-c3c(Cl)cccc3Cl)c(=O)c12 [Compound D-034, 3-(2,6-dichlorophenyl)-5-methyl-2-(9H-purin-6-ylsulfanylmethyl)-3H-quinazolin-4-one] | – | – | 150 nM | 74 | – | 131 | 19000 nM | 153 | 600 ± 400 nM | 28 | 11000 nM | 1200 ± 300 nM | 85 | –
– | – | O=c1c2ccccc2nc(CSc2ncnc3[nH]cnc23)n1-c1ccccc1 [Compound D-121, 3-phenyl-2-(9H-purin-6-ylsulfanylmethyl)-3H-quinazolin-4-one] | – | – | 480 nM | >211 | 70% | >211 | – | 158 | 1400 nM | 136 | – | 900 nM | 138 | 69%
– | – | CCOC(=O)Cn1c(CSc2ncnc3[nH]cnc23)nc2cccc(F)c2c1=O [Compound D-045, [5-fluoro-4-oxo-2-(9H-purin-6-ylsulfanylmethyl)-4H-quinazolin-3-yl]acetic acid ethyl ester] | – | 9000 nM | 7600 nM | >13 | 74% | >13 | – | – | – | – | – | – | – | 98%

Structure (SMILES) | IC50 (PI3Kγ) | IC50 (PI3Kβ [7]) | melting point | EC50 (human neutrophils) | IC50 (PI3Kδ [1]) | Beta/Delta Ratio (PI3Kβ [2]) | remaining activity at 100 µM (PI3Kβ [2]) | Alpha/Delta Ratio (PI3Kα [3]) | IC50 (PI3Kα [3]) | Alpha/Delta Ratio (PI3Kα [4]) | EC50 [5] | Gamma/Delta Ratio (PI3Kγ) | IC50 (PI3Kβ [2]) | IC50 (PI3Kδ [6]) | Beta/Delta Ratio (PI3Kβ [7]) | remaining activity at 100 µM (PI3Kα [3])
Cc1cccc2nc(CSc3ncnc4[nH]cnc34)n(-c3ccccc3F)c(=O)c12 [Compound D-031, 3-(2-Fluorophenyl)-5-methyl-2-(9H-purin-6-ylsulfanylmethyl)-3H-quinazolin-4-one] | 155000 ± 60000 nM | 137000 ± 23000 nM | 151.9 to 152.2 °C | 700 ± 100 nM | 120 nM | 83 | – | >833 | 74000 nM | 903 | 200 ± 100 nM | 802 | 10000 nM | 200 ± 10 nM | 707 | –
O=c1c2cc(F)ccc2nc(CSc2ncnc3[nH]cnc23)n1-c1ccccc1Cl [Compound D-028, 3-(2-Chlorophenyl)-6-fluoro-2-(9H-purin-6-ylsulfanylmethyl)-3H-quinazolin-4-one] | 29000 nM | – | 232.8 to 233 °C | 1000 nM | 180 nM | 69 | – | >556 | – | 125 | 400 ± 200 nM | 18 | 13000 nM | 1600 nM | 101 | 67%
Nc1ncnc2c1ncn2Cc1nc2cccc(Cl)c2c(=O)n1-c1ccccc1F [Compound D-012, 2-(6-Aminopurin-9-ylmethyl)-5-chloro-3-(2-fluorophenyl)-3H-quinazolin-4-one] | – | 108000 ± 4000 nM | 295.6 to 295.8 °C (dec.) | 300 nM | 170 nM | 65 | – | >588 | – | 107 | 300 ± 200 nM | 38 | 11000 nM | 1300 ± 400 nM | 83 | 69%
